Laboratory results taken from patent US9073851B2, “Compositions and methods for treating cancer” (Board of Regents, The University of Texas System, priority 2011, dated 2015).

Key:
[1] = tested on: MDA-MB-231 tumors; experiment: Orthotopic MDA-MB-231 xenograft breast cancer model; format: in vivo, nude mice; details: DOPC nanoliposomal, i.v., 5.8 mg/kg twice weekly (4 weeks)
Procedure: FIG. 3. New role for triptan derivatives targeting the 5-HT1B receptor as a therapeutic modality for breast cancer. (A). […] Treatments, twice per week (4 weeks) were safe and effective. Methods: Phospholipid dioleoylphosphatidylcholine (DOPC) and triptan 5-NT were mixed in tertiary butanol at a lipid:5-NT ratio of 10:1 (w/w). Tween 20 was added at a ratio of 1:20 ratio (w/w) and the mixture lyophilized overnight. The powder was reconstituted in saline and sonicated for one minute. The liposome formulation was injected (100 μl) into the tail vein. (B). 5-NT induces apoptotic cell death of ER(+) MCF-7 cells. (C). […] (D). […] (E). The 5-HT1B receptor is over-expressed in triple negative highly aggressive, and metastatic breast cancer cells as well as drug resistant (i.e. tamoxifen and doxorubicin) breast cancer cells. Methods: Blots were visualized with a FluorChem 8900 imager and quantified by a densitometer using the Alpha Imager application program.
For in vivo delivery siRNA was incorporated into dioleoyl-sn-glycero-3-phosphocholine (DOPC). DOPC and siRNA were mixed in the presence of excess tertiary butanol at a ratio of 1:10 (w/w) siRNA/DOPC [Shaw L M. Methods Mol Biol 2005: 294:97-105]. Before in vivo administration, this preparation was hydrated with normal 0.9% saline in 100 μL for i.v injection per mouse. […]

[2] = tested on: 5-HT1B/1D receptor; experiment: cAMP levels; format: cell-based
[3] = Toxicity and body weight observation in mice

**Q.** What does the source list for `CCCCCCCCCOc1ccc2[nH]cc(CCN)c2c1` [5-NT, 5-nonylytryptamine]?
**A.** tumor growth [1]: significantly inhibits growth; cAMP levels [2]: decrease cAMP levels; toxicity (weight loss) ([3]; high dose of 50 mg/kg): without displaying any toxicity; body weight ([3]; liposome incorporated, i.v., 10 mg/kg, at least 15 doses, 4 weeks): did not lose any weight
